The values that follow come from paper PMC4404097, “The Inhibitory Effects of Ca^2+ Channel Blocker Nifedipine on Rat Kv2.1 Potassium Channels” (PLoS ONE, 2015).

Where a chain is given by its changes, count along the chain named.

Assay [1] concerns the target T1, rat Kv2.1 (Rattus norvegicus, UniProt P15387).
T1 construct: gene Kcnb1; rat Kv2.1 subcloned in pEYFP-N1 (XhoI/EcoRI); homotetramer
T1 sequence (P15387 1-857): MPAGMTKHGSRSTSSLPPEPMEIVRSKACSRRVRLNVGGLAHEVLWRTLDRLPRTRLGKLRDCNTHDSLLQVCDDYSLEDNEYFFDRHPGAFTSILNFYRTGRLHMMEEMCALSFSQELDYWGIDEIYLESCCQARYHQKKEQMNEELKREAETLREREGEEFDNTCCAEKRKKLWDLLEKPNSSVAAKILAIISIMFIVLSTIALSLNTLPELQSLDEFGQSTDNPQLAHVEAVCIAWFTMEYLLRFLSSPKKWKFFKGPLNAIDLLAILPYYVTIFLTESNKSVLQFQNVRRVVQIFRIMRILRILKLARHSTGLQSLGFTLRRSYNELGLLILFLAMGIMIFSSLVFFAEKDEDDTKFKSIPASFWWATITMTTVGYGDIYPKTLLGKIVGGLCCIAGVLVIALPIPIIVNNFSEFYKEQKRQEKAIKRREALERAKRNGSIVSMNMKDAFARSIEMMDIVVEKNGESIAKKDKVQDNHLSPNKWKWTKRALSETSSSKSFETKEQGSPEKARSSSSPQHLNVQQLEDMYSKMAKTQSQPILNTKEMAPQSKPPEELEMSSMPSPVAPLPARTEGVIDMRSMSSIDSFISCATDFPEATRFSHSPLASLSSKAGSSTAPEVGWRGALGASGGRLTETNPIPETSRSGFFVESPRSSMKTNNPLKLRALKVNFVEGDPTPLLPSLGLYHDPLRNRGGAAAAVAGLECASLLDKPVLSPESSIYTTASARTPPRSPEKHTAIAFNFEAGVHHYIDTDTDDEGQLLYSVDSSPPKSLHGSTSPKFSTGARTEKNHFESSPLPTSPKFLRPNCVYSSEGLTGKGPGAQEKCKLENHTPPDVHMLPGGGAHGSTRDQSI
Briefly: whole-cell patch clamp, Hill fit of concentration-response. Format: cell-based. On the technique in general: The patch-clamp technique gives a direct electrical read-out from membranes.

Assay [2] addresses T2, rat Kv2.1 (Rattus norvegicus, UniProt P15387, Y380R).
T2 construct: gene Kcnb1; rat Kv2.1 subcloned in pEYFP-N1 (XhoI/EcoRI); homotetramer
T2 sequence (P15387 1-857 Y380R): T1 sequence (P15387 1-857) with Y380R
The description is as above. Format: cell-based.

What is called IC50 is the concentration that inhibits the measured activity by half. Low readings indicate greater potency, high ones weaker potency. `COC(=O)C1=C(C)NC(C)=C(C(=O)OC)C1c1ccccc1[N+](=O)[O-]` [nifedipine]: the IC50 is 37.5 ± 5.7 µM at rat Kv2.1 [1] and 15.2 ± 1.3 µM against rat Kv2.1 [2].
